From US20020022647A1, “2-(4-bromo or 4-iodo phenylamino) benzoic acid derivatives” (priority 1997, published 2002)

Columns and labels:
[1] = target: GST-MEK (p45MEK) and GST-MAPK (p44MAP kinase) (Homo sapiens, UniProt Q02750); experiment: Cascade assay for inhibitors of the MAP kinase pathway (In Vitro); type: biochemical; settings: incorporation of 32P into myelin basic protein
Experimental: Cascade Assay for Inhibitors of the MAP Kinase Pathway
Incorporation of ^32P into myelin basic protein (MBP) was assayed in the presence of a glutathione S-transferase fusion protein containing p44MAP kinase (GST-MAPK) and a glutathione S-transferase fusion protein containing p45MEK (GST-MEK). The assay solution contained 20 mM HEPES, pH 7.4, 10 mM MgCl2, 1 mM MnCl2, 1 mM EGTA, 50 μM [γ-^32P]ATP, 10 μg GST-MEK0.5 μg GST-MAPK and 40 μg MBP in a final volume of 100 μL. Reactions were stopped after 20 minutes by addition of trichloroacetic acid and filtered through a GF/C filter mat. ^32P retained on the filter mat was determined using a 1205 Betaplate. Compounds were assessed at 10 μM for ability to inhibit incorporation of ^32P.
To ascertain whether compounds were inhibiting GST-MEK or GST MAPK, two additional protocols were employed. In the first protocol, compounds were added to tubes containing GST-MEK, followed by addition of GST-MAPK, MBP and [γ-^32P]ATP. In the second protocol, compounds were added to tubes containing both GST-MEK and GST-MAPK, followed by MBP and [γ-^32P]ATP.

[2] = tested on: activation of MAP kinase in whole cells; experiment: In Vivo (Cell Culture): whole cell MAP kinase assay; type: cell-based
Experimental: Whole Cell MAP Kinase Assay
To determine if compounds were able to block activation of MAP kinase in whole cells, the following protocol was used: Cells were plated in multi-well plates and grown to confluence. Cells were then serum-deprived overnight. Cells were exposed to the desired concentrations of compound or vehicle (DMSO) for 30 minutes, followed by addition of a growth factor, for example, PDGF (100 ng/mL). After a 5-minute treatment with the growth factor, cells were washed with PBS, then lysed in a buffer consisting of 70 mM NaCl, 10 mM HEPES (pH 7.4), 50 mM glycerol phosphate, and 1% Triton X-100. Lysates were clarified by centrifugation at 13,000× g for 10 minutes. Five micrograms of the resulting supernatants were incubated with 10 μg microtubule associated protein-2 (Map2) for 15 minutes at 30° C. in a final volume of 25 μL containing 50 mM Tris (pH 7.4), 10 mM MgCl2, 2 mM EGTA and 30 uM [γ-^32P]ATP. Reactions were terminated by addition of Laemmli sample buffer. Phosphorylated Map2 was resolved on 7.5% acrylamide gels and incorporated radioactivity determined by autoradiography and subsequent excision of the bands followed by scintillation counting.

GST-MEK (p45MEK) and GST-MAPK (p44MAP kinase), sequence (Q02750 whole entry): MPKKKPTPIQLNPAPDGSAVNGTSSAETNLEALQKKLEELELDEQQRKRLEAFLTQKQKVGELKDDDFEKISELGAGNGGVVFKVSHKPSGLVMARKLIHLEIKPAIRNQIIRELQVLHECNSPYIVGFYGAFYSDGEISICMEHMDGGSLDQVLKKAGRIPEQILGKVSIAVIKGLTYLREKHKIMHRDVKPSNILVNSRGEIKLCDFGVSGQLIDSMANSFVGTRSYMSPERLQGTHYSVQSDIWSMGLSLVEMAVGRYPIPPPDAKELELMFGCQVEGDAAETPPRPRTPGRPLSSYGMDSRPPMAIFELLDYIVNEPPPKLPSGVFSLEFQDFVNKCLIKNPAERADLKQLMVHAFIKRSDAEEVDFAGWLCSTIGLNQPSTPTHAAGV

| Compound | IC50 [1] | also measured |
| --- | --- | --- |
| Cc1cc(I)ccc1Nc1ccc(Cl)cc1C(=O)NCCO [Example 31, 5-Chloro-N-(2-hydroxyethl)-2-(4-iodo-2-methyl-phenylamino)-benzamide] | 226 nM | melting point: 120 to 121 °C |
| Cc1cc(I)ccc1Nc1ccc(Cl)cc1C(=O)NCC(=O)O [Example 40, [5-Chloro-2-(4-iodo-2-methyl-phenylamino)-benzoylamno]-acetic acid] | 651 nM | inhibition at 30 µM ([2]; at 30 μM): 30% |
| Cc1cc(I)ccc1Nc1cc(F)ccc1CO [Example 49, 4-Fluoro-2-(4-iodo-2-methyl-2henylamino)-benzyl alcohol] | 418 nM | melting point: 99 to 100.5 °C |
| Cc1cc(I)ccc1Nc1c(C(=O)NCCO)cc(Br)c(F)c1F [Example 53, 5-Bromo-3,4-difluoro-N-(2-hydroxy-ethyl)-2-(4-iodo-2-methyl-phenylamino)-benzamide] | 47 nM | IC50 [2]: 540 nM |
| Cc1cc(I)ccc1Nc1ccc([N+](=O)[O-])cc1C(=O)NCc1ccncc1 [Example 91, 2-(4-Iodo-2-methyl-phenylamino)-5-nitro-N-pyridin-4-yl methyl-benzamide] | 2071 nM | – |
| Cc1cc(I)ccc1Nc1ccc(Br)cc1C(=O)NCCCN1CCN(CCO)CC1 [Example 92, 5-Bromo-N-{3-[4-(2-hydroxy-ethyl)-piperazin-1-yl]-propyl}-2-(4-iodo-2-methyl-phenylamino)-benzamide] | 253 nM | – |
| CCN(CC)CCNC(=O)c1cc(Cl)ccc1Nc1ccc(I)cc1C [Example 93, 5-Chloro-N-(2-diethylamino-ethyl)-2-(4-iodo-2-methyl-phenylamino)-benzamide] | 521 nM | – |
| Cc1cc(I)ccc1Nc1ccc([N+](=O)[O-])cc1C(=O)N1CCC(O)C1 (stereo not drawn) [Example 95, (3-Hydroxy-pyrrolidin-1-yl)-[2-(4-iodo-2-methyl-phenylamino)-5-nitro-phenyl]-] | 1001 nM | – |
| Cc1cc(I)ccc1Nc1ccc(Cl)cc1C(=O)NCCN1CCCC1 [Example 96, 5-Chloro-2-(4-iodo-2-methyl-phenylamino)-N-(2-pyrrolidin-1-yl-ethyl)-benzamide] | 374 nM | – |
| Cc1cc(I)ccc1Nc1ccc(F)cc1C(=O)NOCc1ccccc1 [Example 186, N-Benzy1oxy-5-fluoro-2-(4-iodo-2-methyl-phenylamino)-benzamide] | 555 nM | – |
| Cc1cc(I)ccc1Nc1ccc([N+](=O)[O-])cc1C(=O)NCCO [Example 195, N-(2-Hydroxy-ethyl)-2-(4-iodo-2-methyl-phenylamino)-s-nitro-benzamide] | 12800 nM | – |
| O=C(O)c1cc(Br)c(F)c(F)c1Nc1ccc(I)cc1Cl [Example 220, 5-Bromo-2-(2-chloro-4-iodo-phenylamino)-3,4-difluoro-benzoic acid] | 29 nM | – |

Now from value to molecule, other results behind:

| IC50 [1] | Compound | also measured |
| --- | --- | --- |
| 1994 nM | Cc1cc(I)ccc1Nc1ccc(Br)cc1C(=O)N1CCC(O)C1 (stereo not drawn) [Example 100, [5-Bromo-2-(4-iodo-2-methyl-phenylamino)-phenyl]-(3-hydroxy-pyrrolidin-1-yl)-] | – |
| 278 nM | Cc1cc(I)ccc1Nc1ccc([N+](=O)[O-])cc1C(=O)NC1CCCCC1 [Example 184, N-Cyclohexyl-2-(4-iodo-2-methyl-phenylamino)-5-nitro-benzamide] | – |
| 561 nM | Cc1cc(I)ccc1Nc1ccc(Cl)cc1C(=O)NCCO [Example 187, 5-Chloro-N-(2-hydroxy-ethyl)-2-(4-iodo-2-methyl-phenylamino)-benzamide] | – |
| 771 nM | Cc1cc(I)ccc1Nc1ccc(Br)cc1C(=O)NCCO [Example 188, 5-Bromo-N-(2-hydroxy-ethyl)-2-(4-iodo-2-methyl-phenylamino)-benzamide] | – |
| 859 nM | Cc1cc(I)ccc1Nc1ccc([N+](=O)[O-])cc1C(=O)N(C)c1ccccc1 [Example 189, 2-(4-Iodo-2-methyl-phenylamino)-N-methyl-5-nitro-N-phenyl-benzamide] | – |
| 921 nM | Cc1cc(I)ccc1Nc1ccc(Cl)cc1C(=O)N(C)c1ccccc1 [Example 190, 5-Chloro-2-(4-iodo-2-methyl-phenylamino)-N-methyl-N-phenyl-benzamide] | – |
| 1355 nM | Cc1cc(I)ccc1Nc1ccc(I)cc1C(=O)NCCO [Example 191, N-(2-Hydroxy-ethyl)-5-iodo-2-(4-iodo-2-methyl-phenylamino)-benzamide] | – |
| 1797 nM | Cc1cc(I)ccc1Nc1ccc(Cl)cc1C(=O)NC1CC1 [Example 192, 5-Chloro-N-cyclopropyl-2-(4-iodo-2-methyl-phenylamino)-benzamide] | – |
| 2902 nM | C=CCNC(=O)c1cc(Cl)ccc1Nc1ccc(I)cc1C [Example 193, N-Allyl-5-chloro-2-(4-iodo-2-methyl-phenylamino)-benzamide] | – |
| 4952 nM | Cc1cc(I)ccc1Nc1ccc(F)cc1C(=O)N(C)c1ccccc1 [Example 194, 5-Fluoro-2-(4-iodo-2-methyl-phenylamino)-N-methyl-N-phenyl-benzamide] | – |
| 1215 nM | Cc1cc(I)ccc1Nc1ccccc1-c1nnn[nH]1 [Example 208] | melting point: 231 °C (dec.) |
| 1372 nM | Cc1cc(I)ccc1Nc1ccc([N+](=O)[O-])cc1-c1nnn[nH]1 [Example 209] | melting point: 205 to 208 °C |
